Results as given in patent US12492169B2, “Aminopyridine compound and application thereof” (priority 2020, dated 2025).
≈ marks a conversion by molar mass, not a printed value. Where “and” joins values, the source holds several entries; their conditions need not be identical. Equal entries are not always repeated. Where two headings read alike, the source gives them in different places.

What was measured:
[1] = tested on: Candida albicans ATCC MYA-2876; assay: Minimum inhibitory concentration (MIC) test against fungi; type: cell-based; conditions: ≥50% growth inhibition by eye, three independent experiments
Protocol: (§1) To test the minimum inhibitory concentration (MIC) and minimum effective concentration (MEC) of the drug against fungi.
(§2) Experimental strains: Candida parapsilosis ATCC 22019; Candida albicans ATCC MYA-2876; Candida albicans WX-CA009; Candida glabrata ATCC15126; Candida tropicalis ATCC 750;
(§3) Test medium: RPMI1640 (containing 0.165 M MOPS, pH7.0)
(§4) On the day of the experiment, the compound in the bottle was dissolved in 100% DMSO to a stock solution concentration of 6.24 mg/mL. Then, the mixture was 10-fold diluted with DMSO to 0.624 mg/mL for use.
(§5) A 2-fold gradient dilution of the compound solution (0.624 mg/mL) was performed using DMSO on a 96-microwell plate (V-bottom) to obtain 100× working solutions (wells 1 to 11). 624, 312, 156, 78, 39, 20, 10, 5, 2.5, 1.25, 0.625 μg/mL. 100% DMSO was used as a positive control (well 12). This was the compound stock plate.
(§6) Candida parapsilosis ATCC 22019 and Candida albicans ATCC MYA-2876; Candida albicans WX-CA009; Candida glabrata ATCC15126; Candida tropicalis ATCC 750 frozen at −80° C. were streaked on SDA plates and incubated aerobically in a 35±2° C. incubator for 24 hours.
(§7) On the day of the experiment, for strains Candida parapsilosis ATCC 22019, Candida albicans ATCC MYA-2876; Candida albicans WX-CA009; Candida glabrata ATCC15126; Candida tropicalis ATCC 750 and Cryptococcus neoformans H99 ATCC 208821, the plates were taken out and the clones on the plates were picked, suspended in normal saline, and then the turbidity of the fungal suspension was adjusted to OD600=0.2 using a turbidimeter. The fungal suspension contained about 3.0×10^6 CFU/mL. Then the turbidity-adjusted fungal suspension was diluted with a test medium to a concentration of about 3.0×10^3 CFU/mL. This was the inoculum.
(§8) 2 μL of 100× working solution from the compound stock plate (prepared in 3.1) was transferred to a round-bottomed 96-well plate (containing 98 μL of test medium), and then 100 μL of fungus inoculum (prepared in 3.2) was added to each well to obtain a MIC test plate. Therefore, the final test concentrations of the compounds were 6.24, 3.12, 1.56, 0.78, 0.39, 0.20, 0.10, 0.05, 0.025, 0.0125, 0.006 μg/mL. 1% DMSO was used as a growth control.
(§9) For strains Candida parapsilosis ATCC 22019; Candida albicans ATCC MYA-2876; Candida albicans WX-CA009; Candida glabrata ATCC15126; Candida tropicalis ATCC 750, all test plates were incubated aerobically in a 35±2° C. incubator for 24 hours.
(§10) After incubation, according to the criteria in Table 1 below, the test plate was observed by eye or microscope to determine the MIC (g/mL) and MEC (g/mL) of the test compound against yeast and mold.

[2] = tested on: Candida albicans WX-CA009; assay: as above; type: cell-based; conditions: ≥50% growth inhibition by eye, three independent experiments
Protocol: as §1, §2, §3, §4, §5, §6, §7, §8, §9, §10

[3] = tested on: Candida glabrata ATCC15126; assay: as above; type: cell-based; conditions: Nakaseomyces glabratus, ATCC15126, 24 h, ≥50% growth inhibition by eye, three independent experiments, read-out: MIC
Protocol: as §1, §2, §3, §4, §5, §6, §7, §8, §9, §10

[4] = tested on: Candida parapsilosis ATCC 22019; assay: as above; type: cell-based; conditions: Lodderomyces parapsilosis, ATCC22019, 24 h, ≥50% growth inhibition by eye, three independent experiments (1st, 2nd, 3rd time), read-out: MIC
Protocol: as §1, §2, §3, §4, §5, §6, §7, §8, §9, §10

[5] = tested on: Candida tropicalis ATCC 750; assay: as above; type: cell-based; conditions: ≥50% growth inhibition by eye, three independent experiments
Protocol: as §1, §2, §3, §4, §5, §6, §7, §8, §9, §10

[6] = tested on: Cryptococcus neoformans H99 ATCC 208821; assay: as above; type: cell-based; conditions: Cryptococcus neoformans, ATCC208821, 72 h, ≥50% growth inhibition by eye, three independent experiments, read-out: MIC
Protocol: as §1
Cryptococcus neoformans H99 ATCC 208821;
as §3, §4, §5
Cryptococcus neoformans H99 ATCC 208821 frozen at −80° C. was streaked on SDA plates and incubated aerobically in a 35±2° C. incubator for 48 hours.
as §7, §8
For Cryptococcus neoformans H99 ATCC 208821, all test plates were incubated aerobically in a 35±2° C. incubator for 72 hours.
as §10

[7] = tested on: Aspergillus flavus ATCC MYA-1004; assay: Minimum effective concentration (MEC) test against fungi; type: cell-based; conditions: change of hyphae morphology by microscope, 48 hours, three independent experiments
Protocol: as §1
(§11) Aspergillus fumigatus ATCC-MYA-4609; Aspergillus flavus ATCC MYA-1004
as §3, §4, §5
(§12) Aspergillus fumigatus ATCC-MYA-4609; Aspergillus flavus ATCC MYA-1004 frozen at −80° C. were streaked on SDA plates and incubated aerobically in a 30±2° C. incubator for 6 days.
(§13) For strains Aspergillus fumigatus ATCC MYA-4609; Aspergillus flavus ATCC MYA-1004, after taking out the plate, 3 mL of 0.9% normal saline containing 0.1% Tween20 was added to the plate and the spores were gently collected. The spores were counted with a hemocytometer and the spore suspension was adjusted to about 5×10^6 spores/mL. Then the spore suspension was diluted to 0.8 to 1×10^5 spores/mL with a test medium.
as §8
(§14) For mold strains Aspergillus fumigatus ATCC-MYA-4609 and Aspergillus flavus ATCC MYA-1004, all test plates were incubated aerobically in a 35±° C. incubator for 48 hours.
as §10

[8] = tested on: Aspergillus fumigatus ATCC-MYA-4609; assay: as above; type: cell-based; conditions: change of hyphae morphology by microscope, 48 hours, three independent experiments
Protocol: as §1, §11, §3, §4, §5, §12, §13, §8, §14, §10

[9] = Mouse pharmacokinetic evaluation, intraperitoneal injection after oral ABT; type: in vivo; conditions: ip, female CD-1 mice, ABT 50 mg/kg orally 2 hours before, plasma; for AUC: read-out: Concentration Integral AUC; for Cmax: read-out: Peak Concentration Cmax; for Tmax: read-out: Peak Time Tmax
Text: Experimental Purpose: Using female CD-1 mice as test animals, LC/MS/MS was used to measure the plasma drug concentration at different times after intraperitoneal injection of the test compound. To study the pharmacokinetic behavior of the test compound in mice and evaluate its pharmacokinetic characteristics. Drug preparation: An appropriate amount of sample was weighed and then prepared into a clear or suspended solution. Administration scheme: Two healthy female CD-1 mice were taken, purchased from Beijing Vital River Laboratory Animal Technology Co., Ltd., and given a normal diet. The drug was administered through intraperitoneal injection. Operational steps: 2 hours before administration, 1-aminobenzotriazole (ABT) was orally administered (50 mg/kg, 5 mg/mL in normal saline), and after animal administration, about 30 μL of blood was collected at 0.083, 0.25, 0.5, 1, 2, 4, 8, and 24 hours, and placed in commercially available anticoagulant tubes pre-added with EDTA-K2. The tubes were centrifuged for 10 minutes to separate the plasma, and the plasma was stored at −60° C. The content of the target compound in the plasma sample was determined by LC/MS/MS method, and the experimental results are shown in Table 3.

[10] = tested on: Candida albicans ATCC MYA-2876; assay: Mouse candidemia efficacy model; type: in vivo; conditions: female CD-1 mice infected with Candida albicans ATCC MYA-2876; 26 mg/kg intraperitoneally once a day for 7 days after 50 mg/kg ABT orally; n=5
Protocol: Experimental animals: female CD-1 mice, 7 weeks old, 27 to 29 g, n=5 or 8;
microbial pathogen: Candida albicans ATCC MYA-2876;
inoculation level and route: 2.0 to 4.0E+05 CFU/mouse, infected by tail vein injection;
treatment: The treatment started at 1 hour after infection. Firstly, ABT was administered orally, and 2 hours later, the test compound was injected intraperitoneally once a day for 7 days in total, with an administration volume of 10 mL/kg.
Observation indicators: Changes in body weight and mortality within 7 days after infection in each group of mice.

[11] = Candida albicans, 24 h, read-out: MIC
[12] = Candida albicans, WXCA009, 24 h, read-out: MIC
[13] = Candida tropicalis, ATCC750, 24 h, read-out: MIC

Row | Compound | MIC [1, 11] [mg/L] | MIC [2, 12] [mg/L] | MIC [3] [mg/L] | MIC [4] [mg/L] | MIC [5, 13] [mg/L] | MIC [6] [mg/L] | MEC [7] | MEC [8] | AUC ([9]; 6 mpk) [µM·h] | Cmax ([9]; 6 mpk) [µM] | Tmax ([9]; 6 mpk) [h] | protection from death caused by candidemia [10] | MIC ([1]; 24 hours) [mg/L] | MIC ([2]; 24 hours) [mg/L] | MIC ([5]; 24 hours) [mg/L] | AUC ([9]; 26 mpk) [µM·h] | Cmax ([9]; 26 mpk) [µM] | Tmax ([9]; 26 mpk) [h]
1 | Nc1ccc(C#CCc2ccc(Oc3cccc(F)n3)cc2)cn1 [WX009] | 0.05 (≈ 0.157 µM) | 0.05 (≈ 0.157 µM) | 0.78 (≈ 2.44 µM) | 0.05 (≈ 0.157 µM) | 0.1 (≈ 0.313 µM) | 0.025 (≈ 0.0783 µM) | 0.39 µg/mL | 0.39 µg/mL | 67 | 11.4 | 0.75 | completely protect | – | – | – | – | – | –
2 | Cc1nc(N)ccc1C#CCc1ccc(COc2ccccn2)cc1 [WX006] | 0.025 (≈ 0.0759 µM) | 0.05 (≈ 0.152 µM) | 0.39 (≈ 1.18 µM) | 0.05 (≈ 0.152 µM) | 0.0125 (≈ 0.0379 µM) | 0.78 (≈ 2.37 µM) | 0.39 µg/mL and 0.2 µg/mL | 0.1 µg/mL and 0.05 µg/mL | – | – | – | completely protect | 0.0125 (≈ 0.0379 µM) | 0.025 (≈ 0.0759 µM) | 0.025 (≈ 0.0759 µM) | 221 | 23 | 1.5
3 | Nc1ncc(C#CCc2ccc(COc3ccccn3)cc2)cc1F [WX008] | 0.05 (≈ 0.15 µM) | 0.05 (≈ 0.15 µM) | 0.78 (≈ 2.34 µM) | 0.05 (≈ 0.15 µM) | 0.05 (≈ 0.15 µM) | 3.12 (≈ 9.36 µM) | 0.39 µg/mL | 1.56 µg/mL | 75 | 4.7 | 4.3 | – | – | – | – | – | – | –
